Reference: patent publication US20230218614A1, “COMPOUND FOR THE TREATMENT OF C[…]” (METRIOPHARM AG, priority 2020, published 2023)

Experiments:
Vero B4 cells = details: non-infected Vero B4 cells, antivirally effective concentrations, observation period of 3 days
Excerpt: Herein viable cells with an intact mitochondrial succinate-tetrazolium dehydrogenase system effect an enzymatic conversion of the feebly red tetrazolium salt WST-1 (4-[3-(4-iodophenyl)-2-(4-nitrophenyl)-2H-5-tetrazolio]-1,3 benzene disulfonate) into dark red formazan. This color change can be measured photometrically in a spectrophotometer. Thus, the WST assay is a very sensitive method for measuring the toxicity of substances on the cell metabolism. The value for untreated cells was set to 100%.
The value for untreated cells was set to 100%.

3-nitrotyrosine = details: ex vivo lung exposed to cigarette smoke; cited from earlier work

Nc1cccc2c(=O)[nH][nH]c(=O)c12.[Na] [5-amino-2,3-dihydro-1,4-phthalazinedione sodium salt]
toxic effect (cell viability, WST assay) (Vero B4 cells): does not display any significant toxic effect
SARS-CoV-2 nucleocapsid protein (Western Blot bands) (SARS-CoV-2): clear reduction
generation of SARS-CoV-2 proteins (densitometric evaluation of nucleocapsid) (SARS-CoV-2): inhibited dose-dependently
3-nitrotyrosine (3-nitrotyrosine): nearly complete reduction
